Source: patent US20260069619A1, “Treatment of Dry Eye Disease Using Mitochondrially Targeted Antioxidants” (MITOTECH S.A., priority 2022, published 2026)

How the values were obtained:
[1] = test system: subjects with dry eye syndrome; assay: VISTA-2 clinical study (NCT04206020): central corneal fluorescein staining; type: in vivo, human; settings: for Change from baseline in central fluorescein staining, LS Mean: 1.55 μg/mL SkQ1, ITT subgroup, observed data only
Experimental: The VISTA-2 (NCT04206020) clinical study reported results of a dose of 1.55 μg/mL SkQ1 compared to placebo (vehicle). VISTA-2 reported a measured change of ocular discomfort scale. The scale ranged from 0 to 4 with 0=no discomfort and 4=constant discomfort from baseline to Day 57. VISTA-2 reported a measured change of level of conjunctival fluorescein staining (sum of temporal and nasal regions). The scale in each region ranged from 0 to 4, with 0=no staining and 4=confluent staining from baseline to day 57. Study subjects were carefully monitored for any adverse events.
(§1) In addition to the reported data, observed data collected during the VISTA-1 and VISTA-2 clinical studies were analyzed in an ITT subgroup with an unanesthetized Schirmer's Test ≥7 mm at baseline (initial evaluation).
(§2) In both VISTA-1 and VISTA-2, post-hoc analyses were conducted on observed data for the ITT subgroup including subjects with an unanesthetized Schirmer's test score of ≥7 mm at baseline, with observed data only to evaluate change from baseline in central fluorescein staining. Table 4 summarizes the results for subjects with unanesthetized Schirmer's test score of […] at baseline. […] In VISTA-2, with increased sample size, significant improvement was confirmed in this subgroup (pANCOVA=0.0168). In Table 4, the change from baseline in central fluorescein staining for the ITT subgroup with unanesthetized Schirmer's test score of ≥7 mm at baseline is provided with observed data only.
(§3) A similar subgroup, as described above, was also analyzed in post-hoc analyses for both VISTA-1 and VISTA-2 to evaluate the proportion of subjects with clearing of corneal fluorescein staining in the central region. […] In VISTA-2, with increased sample size, significant improvement was confirmed (pLogistic regression=0.0049, pPearson chi-squared=0.0033, pFisher's exact test=0.0037). In Table 5, the proportion of study subjects with clearing of corneal fluorescein staining in the central corneal region, for the ITT Subgroup with unanesthetized Schirmer's test score of ≥7 mm at baseline is presented, with observed data only.

[2] = test system: subjects with dry eye syndrome; assay: VISTA-2 clinical study: best corrected visual acuity (BCVA-logMAR); type: in vivo, human; settings: blurred vision [OSDI 4]≥1, poor vision [OSDI 5]≥1 at baseline
Description: Visual acuity can be measured by a health care provider to provide a sign of DED. The visual acuity can be a best corrected visual acuity (BCVA) of an eye or of both eyes. A logarithm of the minimum angle of resolution (LogMAR) chart such, for example, a Bailey-Lovie chart or an Early Treatment Diabetic Retinopathy Study chart can be utilized to measure BCVA. The number of letters read correctly by a subject can be converted to logMAR scores. The VISTA-2 (NCT04206020) clinical study reported results of a dose of 1.55 μg/mL SkQ1 compared to placebo (vehicle). VISTA-2 reported a measured change of ocular discomfort scale. The scale ranged from 0 to 4 with 0=no discomfort and 4=constant discomfort from baseline to Day 57. VISTA-2 reported a measured change of level of conjunctival fluorescein staining (sum of temporal and nasal regions). The scale in each region ranged from 0 to 4, with 0=no staining and 4=confluent staining from baseline to day 57. Study subjects were carefully monitored for any adverse events. [table] In VISTA-2, change from baseline in BCVA using a logMAR (BCVA-logMAR) at Visit 3 was evaluated in the ITT subgroup including subjects with Schirmer's test score ≥7 mm, blurred vision [OSDI 4]≥1, and poor vision [OSDI 5]≥1 at baseline. Significant improvement was shown in VISTA-2 with pANCOVA=0.0143. […]

[3] = test system: subjects with dry eye syndrome; assay: VISTA-1 clinical study (NCT03764735): central corneal fluorescein staining; type: in vivo, human; settings: for Change from baseline in central corneal fluorescein staining, ANCOVA model LS Mean (SE) / Difference in Means, Active - Placebo (two-sample t-test), central corneal fluorescein staining change: 57 days, mITT; for Change from baseline in central corneal fluorescein staining, Mean (SD): after 57 days, mITT population, scale 0-4; for Change from baseline in central fluorescein staining, LS Mean: ITT subgroup, observed data only
Description: The VISTA-1 clinical study (NCT03764735) evaluated ophthalmic solutions with different concentrations of SkQ1 for various aspects of safety and effectiveness compared to placebo (vehicle) for treatment of various signs and symptoms of DED. The vehicle was an artificial tear treatment used as a control.
The VISTA-1 study reported change of level of corneal fluorescein staining from baseline to day 57. The level of corneal fluorescein scale ranged from 0 to 4, where level 0=none and level 4=severe. VISTA-1 reported a change in symptoms such as subject-reported grittiness from baseline to day 57, where the scale ranged from 0 to 5 for each symptom, where 0=none and 5=worst. Study subjects were carefully monitored for any adverse events.
as §1, §2, §3

[4] = test system: eye; settings: cited from earlier work
[5] = 1.55 μg/mL SkQ1, ITT subgroup Schirmer's ≥7 mm at baseline
[6] = 1.55 μg/mL SkQ1, ITT subgroup Schirmer's ≥7 mm at baseline, of 78 subjects
[7] = VISTA-1, 1.55 μg/mL SkQ1, ITT subgroup Schirmer's ≥7 mm at baseline
[8] = VISTA-1, 1.55 μg/mL SkQ1, ITT subgroup Schirmer's ≥7 mm at baseline, of 46 subjects

**Q.** What does the source list for SkQ1?
**A.** Proportion of Subjects with Fluorescein Staining in the Central Region (>0 Score) [1, 5]: (83.3%); Proportion of Subjects without Fluorescein Staining in the Central Region (=0 Score) [1, 5]: (16.7%); Number of Subjects with Fluorescein Staining in the Central Region (>0 Score) [1, 6]: 65; Number of Subjects without Fluorescein Staining in the Central Region (=0 Score) [1, 6]: 13; Change from baseline in central fluorescein staining, LS Mean ([1]; unanesthetized Schirmer's test <7 mm at baseline): −0.156; Change from baseline in central fluorescein staining, LS Mean ([1]; unanesthetized Schirmer's test ≥7 mm at baseline): −0.43; Odds Ratio, Logistic Regression, clearing of central corneal fluorescein staining, 1.55 μg/mL SkQ1 - Placebo ([1]; ITT subgroup Schirmer's ≥7 mm at baseline): 6.73; BCVA-logMAR change from baseline, LS Mean (SE) ([2]; 1.55 μg/mL SkQ1, ITT subgroup Schirmer's <7 mm): −0.0 (0.0137); BCVA-logMAR change from baseline, LS Mean (SE) ([2]; 1.55 μg/mL SkQ1, Visit 3, ITT subgroup Schirmer's ≥7 mm): −0.012 (0.0143); Change from baseline in central corneal fluorescein staining, ANCOVA model LS Mean (SE) ([3]; 0.155 μg/mL SkQ1): −0.31 (0.059); Difference in Means, Active - Placebo (two-sample t-test), central corneal fluorescein staining change ([3]; 0.155 μg/mL SkQ1): −0.02; Change from baseline in central corneal fluorescein staining, ANCOVA model LS Mean (SE) ([3]; 0.155 μg/mL SkQ1, listed as SkQ): −0.31; Change from baseline in central corneal fluorescein staining, Mean (SD) ([3]; 0.155 μg/mL SkQ1 ophthalmic solution BID): −0.30 (0.816); Change from baseline in central corneal fluorescein staining, ANCOVA model LS Mean (SE) ([3]; 1.55 μg/mL SkQ1): −0.20 (0.058); Difference in Means, Active - Placebo (two-sample t-test), central corneal fluorescein staining change ([3]; 1.55 μg/mL SkQ1): 0.08; Change from baseline in central corneal fluorescein staining, ANCOVA model LS Mean (SE) ([3]; 1.55 μg/mL SkQ1, listed as SkQ6): −0.20; Change from baseline in central corneal fluorescein staining, Mean (SD) ([3]; 1.55 μg/mL SkQ1 ophthalmic solution BID): −0.20 (0.763); Treatment effect on the central fluorescein staining sign of dry eye vs placebo ([3]; 0.155 and 1.55 μg/mL SkQ1 ophthalmic solution, all treatment groups): no statistically significant beneficial treatment effect; Proportion of Subjects with Fluorescein Staining in the Central Region (>0 Score) [3, 7]: (84.8%); Proportion of Subjects without Fluorescein Staining in the Central Region (=0 Score) [3, 7]: (15.2%); Number of Subjects with Fluorescein Staining in the Central Region (>0 Score) [3, 8]: 39; Number of Subjects without Fluorescein Staining in the Central Region (=0 Score) [3, 8]: 7; Change from baseline in central fluorescein staining, LS Mean ([3]; VISTA-1, 1.55 μg/mL SkQ1, unanesthetized Schirmer's test <7 mm at baseline): −0.20; Change from baseline in central fluorescein staining, LS Mean ([3]; VISTA-1, 1.55 μg/mL SkQ1, unanesthetized Schirmer's test ≥7 mm at baseline): −0.46; Odds Ratio, Logistic Regression, clearing of central corneal fluorescein staining, 1.55 μg/mL SkQ1 - Placebo ([3]; VISTA-1, ITT subgroup Schirmer's ≥7 mm at baseline): 7.57; dose at which mild ocular toxicity is observed ([4]; in vivo): 45 μg/eye/day; no observed adverse effect level (NOAEL) for ocular toxicity ([4]; per eye per day): 4.5 μg/eye/day
